The test deals with T1, human PAD4 (Homo sapiens, UniProt Q9UM07).
T1 construct: human PAD4 (NM_012387), A2-P663, was PCR amplified; His-SUMO (N, cleaved yes); made in house; host or cells: E. coli BL21(DE3)
T1 sequence (Q9UM07 2-663): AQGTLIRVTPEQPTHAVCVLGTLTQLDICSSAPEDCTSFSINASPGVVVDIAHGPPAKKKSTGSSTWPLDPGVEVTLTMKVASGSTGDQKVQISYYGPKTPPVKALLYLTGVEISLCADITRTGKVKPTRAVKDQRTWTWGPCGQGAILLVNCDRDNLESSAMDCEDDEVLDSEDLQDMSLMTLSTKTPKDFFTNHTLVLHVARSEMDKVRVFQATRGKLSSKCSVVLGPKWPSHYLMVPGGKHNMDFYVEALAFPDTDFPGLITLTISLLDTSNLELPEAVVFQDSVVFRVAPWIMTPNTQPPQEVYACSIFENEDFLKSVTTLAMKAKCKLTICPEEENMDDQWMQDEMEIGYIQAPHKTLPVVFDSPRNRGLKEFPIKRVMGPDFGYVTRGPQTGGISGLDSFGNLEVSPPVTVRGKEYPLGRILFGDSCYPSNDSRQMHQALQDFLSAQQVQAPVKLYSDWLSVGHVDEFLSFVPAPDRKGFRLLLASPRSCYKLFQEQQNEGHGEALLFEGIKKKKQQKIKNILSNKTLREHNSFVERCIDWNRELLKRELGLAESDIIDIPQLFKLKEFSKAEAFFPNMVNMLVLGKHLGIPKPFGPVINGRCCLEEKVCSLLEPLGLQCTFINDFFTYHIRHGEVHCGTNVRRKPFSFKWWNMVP
The experiment in a line: In vitro PAD4 BAEE biochemical assay. The following applies: BAEE substrate 3 mM, 5 nM PAD4, 2 mM calcium chloride; geometric mean of multiple experiments. A digest of the protocol:
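Recombinant PAD4 (5 nM final) with 2 mM CaCl2 was preincubated with compound for 30 min at 25 °C in MOPS pH 7.6 buffer with DTT, then reacted with 3 mM BAEE for 2 h at 25 °C. Released ammonia was detected fluorimetrically with o-phthalaldehyde/DTT; IC50 from four-parameter fit, geometric mean of experiments.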
For the molecule `COc1cc(C(=O)N2CCC[C@@H](N)C2)cc2nc(-c3cc4ccc5nc4n3C[C@H]3C[C@@H]3CCCCC(=O)N[C@@H]5C)n(C)c12` [Example 163, (3~{S},5~{S},12~{R})-18-[5-[(3~{R})-3-aminopiperidine-1-carbonyl]-7-methoxy-1-methyl-benzimidazol-2-yl]-12-methyl-1,11,20-triazatetracyclo[11.5.2.0^{3,5}.0^{16,19}] icosa-13(20),14,16(19),17-tetraen-10-one], the IC50 worked out at 0.051 µM.

`COc1cc(C(=O)N2CCC[C@@H](N)C2)cc2nc(-c3cc4ccc5cc4n3CCCCC[C@H]3C[C@@H]3C(=O)N[C@@H]5C)n(C)c12` [Example 164, (2~{R},5~{S},7~{S})-14-[5-[(3~{R})-3-aminopiperidine-1-carbonyl]-7-methoxy-1-methyl-benzimidazol-2-yl]-2-methyl-3,13-diazatetracyclo[11.5.2.0^{5,7}.0^{16,20}] icosa-1(19),14,16(20),17-tetraen-4-one]: the IC50 was determined as 0.033 µM.

Consider `COc1cc(C(=O)N2CCC[C@@H](N)C2)cc2nc(-c3cc4ccc5cc4n3CCCCC[C@@H]3C[C@H]3C(=O)N[C@@H]5C)n(C)c12` [Example 165, (2~{R},5~{R},7~{R})-14-[5-[(3~{R})-3-aminopiperidine-1-carbonyl]-7-methoxy-1-methyl-benzimidazol-2-yl]-2-methyl-3,13-diazatetracyclo[11.5.2.0^{5,7}.0^{16,20}] icosa-1(19),14,16(20),17-tetraen-4-one], for which the IC50 turned out to be 0.235 µM.

In the case of `COc1cc(C(=O)N2CCC[C@@H](N)C2)cc2nc(-c3cc4ccc5nc4n3C[C@H]3C[C@@H]3CCCC(C)C(=O)N[C@@H]5C)n(C)c12` (stereo partly shown) [Example 166, (3~{S},5~{S},12~{R})-18-[5-[(3~{R})-3-aminopiperidine-1-carbonyl]-7-methoxy-1-methyl-benzimidazol-2-yl]-9,12-dimethyl-1,11,20-triazatetracyclo[11.5.2.0^{3,5}.0^{16,19}] icosa-13(20),14,16(19),17-tetraen-10-one], the IC50 came out at 0.049 µM.

With `COc1cc(C(=O)N2CCC[C@@H](N)C2)cc2nc(-c3cc4ccc5nc4n3C[C@@H]3C[C@H]3CC[C@H]3C[C@@H]3C(=O)N[C@@H]5C)n(C)c12` [Example 167, (3~{R},5~{R},8~{S},10~{S},13~{R})-19-[5-[(3~{R})-3-aminopiperidine-1-carbonyl]-7-methoxy-1-methyl-benzimidazol-2-yl]-13-methyl-1,12,21-triazapentacyclo[12.5.2.0^{3,5}.0^{8,10}.0^ {17,20}]henicosa-14(21),15,17(20),18-tetraen-11-one], the concentration for half-maximal inhibition (IC50) was determined as 0.09 µM.

For `COc1cc(C(=O)N2CCC[C@@H](N)C2)cc2nc(-c3cc4ccc5nc4n3C[C@@H]3C[C@H]3CC[C@@H]3C[C@H]3C(=O)N[C@@H]5C)n(C)c12` [Example 168, (3~{R},5~{R},8~{R},10~{R},13~{R})-19-[5-[(3~{R})-3-aminopiperidine-1-carbonyl]-7-methoxy-1-methyl-benzimidazol-2-yl]-13-methyl-1,12,21-triazapentacyclo[12.5.2.0^{3,5}.0^{8,10}.0^ {17,20}]henicosa-14(21),15,17(20),18-tetraen-11-one], the IC50 was determined as 0.039 µM.

On to `C[C@H]1NC(=O)C(C)(C)CCCCCCn2c(-c3nc4cc(C(=O)N5CCC[C@@H](N)C5)c(F)cc4n3C3CC3)cc3ccc1nc32` [Example 169, (11~{R})-17-[5-[(3~{R})-3-aminopiperidine-1-carbonyl]-1-cyclopropyl-6-fluoro-benzimidazol-2-yl]-8,8,11-trimethyl-1,10,19-triazatricyclo[10.5.2.0^{15,18}]nonadeca-12(19),13,15(18),16-tetraen-9-one], for which the IC50 is 0.069 µM.

Take `COc1cc(C(=O)N2CCC[C@@H](N)C2)cc2nc(-c3cc4ccc5nc4n3CCCCCc3c(cnn3C)C(=O)N[C@@H]5C)n(C)c12` [Example 170, (2~{R})-16-[5-[(3~{R})-3-aminopiperidine-1-carbonyl]-7-methoxy-1-methyl-benzimidazol-2-yl]-2,8-dimethyl-3,7,8,15,21-pentazatetracyclo[13.5.2.0^{5,9).0^{18,22}] docosa-1(21),5(9),6,16,18(22),19-hexaen-4-one]: the IC50 came out at 0.118 µM.

Consider `COc1cc(C(=O)N2CCC[C@@H](N)C2)cc2nc(-c3cc4ccc5nc4n3CCCC#Cc3cnn(C)c3C(=O)N[C@@H]5C)n(C)c12` [Example 171, (2~{R})-16-[5-[(3~{R})-3-aminopiperidine-1-carbonyl]-7-methoxy-1-methyl-benzimidazol-2-yl]-2,6-dimethyl-3,6,7,15,21-pentazatetracyclo[13.5.2.0^{5,9}.0^{18,22}] docosa-1(21),5(9),7,16,18(22),19-hexaen-10-yn-4-one], for which the IC50 amounted to 0.804 µM.

Consider `COc1cc(C(=O)N2CCC[C@@H](N)C2)cc2nc(-c3cc4ccc5nc4n3CCCCCc3cnn(C)c3C(=O)N[C@@H]5C)n(C)c12` [Example 172, (2~{R})-16-[5-[(3~{R})-3-aminopiperidine-1-carbonyl]-7-methoxy-1-methyl-benzimidazol-2-yl]-2,6-dimethyl-3,6,7,15,21-pentazatetracyclo[13.5.2.0^{5,9}.0^{18,22}] docosa-1(21),5(9),7,16,18(22),19-hexaen-4-one], for which the IC50 worked out at 0.101 µM.

`COc1cc(C(=O)N2CC[C@@H](OC)[C@@H](N)C2)cc2nc(-c3cc4ccc5cc4n3CCCCCCC(C)(C)C(=O)N[C@@H]5C)n(C)c12` [Example 173, (11~{R})-17-[5-[(3~{S},4~{R})-3-amino-4-methoxy-piperidine-1-carbonyl]-7-methoxy-1-methyl-benzimidazol-2-yl]-8,8,11-trimethyl-1,10-diazatricyclo[10.5.2.0^{15,18}]nonadeca-12(19),13,15(18),16-tetraen-9-one]: the IC50 came out at 0.109 µM.

Consider `COc1cc(C(=O)N2CC[C@@H](OC)[C@@H](N)C2)cc2nc(-c3cc4ccc5nc4n3CCCCC[C@@H]3C[C@H]3C(=O)N[C@@H]5C)n(C)c12` [Example 174, (2~{R},5~{R},7~{R})-14-[5-[(3~{S),4~{R})-3-amino-4-methoxy-piperidine-1-carbonyl]-7-methoxy-1-methyl-benzimidazol-2-yl]-2-methyl-3,13,19-triazatetracyclo[11.5.2.0^{5,7}.0^{16,20}] icosa-1(19),14,16(20),17-tetraen-4-one], for which the IC50 turned out to be 0.08 µM.

With `COc1cc(C(=O)N2CC[C@@H](OC)[C@@H](N)C2)cc2nc(-c3cc4ccc5nc4n3CCCCC[C@H]3C[C@]3(C)C(=O)N[C@@H]5C)n(C)c12` [Example 175], the IC50 turned out to be 0.231 µM.

Regarding `C[C@H]1NC(=O)C(C)(C)CCCCCCn2c(-c3nc4cc(C(=O)N[C@@H]5CCCNC5)c(F)cc4n3C3CC3)cc3ccc1nc32` [Example 176, 1-cyclopropyl-6-fluoro-~{N}-[(3~{R})-3-piperidyl]-2-[(11~{R})-8,8,11-trimethyl-9-oxo-1,10,19-triazatricyclo[10.5.2.0^{15,18}]nonadeca-12(19),13,15(18),16-tetraen-17-yl]benzimidazole-5-carboxamide], the IC50 amounted to 0.196 µM.

Consider `COc1cc(C(=O)NC2CNC2)cc2nc(-c3cc4ccc5nc4n3CCCCCCC(C)(C)C(=O)N[C@@H]5C)n(C)c12` [Example 177, ~{N}-(azetidin-3-yl)-7-methoxy-1-methyl-2-[(11~{R})-8,8,11-trimethyl-9-oxo-1,10,19-triazatricyclo[10.5.2.0^{15,18}]nonadeca-12(19),13,15(18),16-tetraen-17-yl]benzimidazole-5-carboxamide], for which the IC50 came to 30.5 µM.

In the case of `COc1cc(C(=O)N[C@H]2CNCC[C@@H]2F)cc2nc(-c3cc4ccc5nc4n3CCCCCCC(C)(C)C(=O)N[C@@H]5C)n(C)c12` [Example 178, ~{N}-[(3~{S},4~{S})-4-fluoro-3-piperidyl]-7-methoxy-1-methyl-2-[(11~{R})-8,8,11-trimethyl-9-oxo-1,10-diazatricyclo[10.5.2.0^{15,18}]nonadeca-12(19),13,15(18),16-tetraen-17-yl]benzimidazole-5-carboxamide], the IC50 came out at 0.05 µM.

Regarding `C[C@H]1NC(=O)C(C)(C)CCCCCCn2c(-c3nc4cc(C(=O)N[C@H]5CNCC[C@@H]5F)c(F)cc4n3C3CC3)cc3ccc1nc32` [Example 179, 1-cyclopropyl-6-fluoro-~{N}-[(3~{S},4~{S})-4-fluoro-3-piperidyl]-2-[(11~{R})-8,8,11-trimethyl-9-oxo-1,10,19-triazatricyclo[10.5.2.0^{15,18}]nonadeca-12(19),13,15(18),16-tetraen-17-yl]benzimidazole-5-carboxamide], the IC50 is 0.062 µM.

For `COc1cc(C(=O)N[C@H]2CNCC[C@@H]2F)cc2nc(-c3cc4ccc5nc4n3CCCCCc3c(cnn3C)C(=O)N[C@@H]5C)n(C)c12` [Example 180, 2-[(2~{R})-2,8-dimethyl-4-oxo-3,7,8,15,21-pentazatetracyclo[13.5.2.0^{5,9}.0^{18,22}]docosa-1(21),5(9),6,16,18(22),19-hexaen-16-yl]-~{N}-[(3~{S},4~{S})-4-fluoro-3-piperidyl]-7-methoxy-1-methyl-benzimidazole-5-carboxamide], the IC50 was determined as 0.075 µM.

As to `COc1cc(C(=O)N[C@H]2CNCC[C@@H]2F)cc2nc(-c3cc4ccc5nc4n3CCCCCc3cnn(C)c3C(=O)N[C@@H]5C)n(C)c12` [Example 181, 2-[(2~{R})-2,6-dimethyl-4-oxo-3,6,7,15,21-pentazatetracyclo[13.5.2.0^{5,9}.0^{18,22}]docosa-1(21),5(9),7,16,18(22),19-hexaen-16-yl]-~{N}-[(3~{S},4~{S})-4-fluoro-3-piperidyl]-7-methoxy-1-methyl-benzimidazole-5-carboxamide], the IC50 stood at 0.171 µM.

Source of the values: patent US11976083B2, “Inhibitors of peptidylarginine deiminases” (Gilead Sciences, Inc., priority 2020, dated 2024).
